Data reported in patent US10953012B2, “Heterocyclic compounds for the inhibition of pask” (BioEnergenix LLC, priority 2011, dated 2021).

Key:
[1] = target: hPASK (full length) (Homo sapiens (Human), UniProt Q96RG2); test: PAS Kinase Luminescence Assay (Kinase-Glo), full length; format: biochemical
Description: (§1) PAS Kinase Luminescence Assay
(§2) One assay for purified hPASK activity utilizes the Kinase-Glo Luminescent Kinase Assay (Promega), which quantifies the amount of ATP remaining in solution following kinase reaction. The assay is carried out in a 96-well plate format and is performed by adding a volume of Kinase-Glo Reagent (Promega, catalog #V3771) equal to the volume of solution in the well of a completed kinase reaction. Kinase-Glo reagent contains Luciferase and its substrate. After addition to a kinase reaction it allows to measure luminescence. The amount of ATP left in solution at the time of Kinase-Glo Plus addition is directly proportional to the luminescence that is measured in each well, and inversely correlated with kinase activity.
(§3) Purified hPASK from insect cells (0.02 μg) is added to a 50 μL reaction mix containing 40 mM HEPES (pH 7.0), 100 mM KCl, 5 mM MgCl2, 1 mM DTT and 1 μg of MBP protein. Inhibitory compounds are then added and the mixture is incubated for 10 min at 25° C. before adding 5 μL of ATP (at desired concentration). The reaction is allowed to proceed at 25° C. for 1 hour before adding 50 μL of Kinase-Glo reagent. The luminescence is measured as soon as 10 minutes after Kinase-Glo reagent is added.
(§4) Results are shown below in Table 1, where NT means not tested.

[2] = target: hPASK (kinase domain) (Homo sapiens (Human), UniProt Q96RG2); test: PAS Kinase Luminescence Assay (Kinase-Glo), kinase domain; format: biochemical
Description: as §1, §2, §3, §4

Chain of hPASK (full length) (Q96RG2 whole entry): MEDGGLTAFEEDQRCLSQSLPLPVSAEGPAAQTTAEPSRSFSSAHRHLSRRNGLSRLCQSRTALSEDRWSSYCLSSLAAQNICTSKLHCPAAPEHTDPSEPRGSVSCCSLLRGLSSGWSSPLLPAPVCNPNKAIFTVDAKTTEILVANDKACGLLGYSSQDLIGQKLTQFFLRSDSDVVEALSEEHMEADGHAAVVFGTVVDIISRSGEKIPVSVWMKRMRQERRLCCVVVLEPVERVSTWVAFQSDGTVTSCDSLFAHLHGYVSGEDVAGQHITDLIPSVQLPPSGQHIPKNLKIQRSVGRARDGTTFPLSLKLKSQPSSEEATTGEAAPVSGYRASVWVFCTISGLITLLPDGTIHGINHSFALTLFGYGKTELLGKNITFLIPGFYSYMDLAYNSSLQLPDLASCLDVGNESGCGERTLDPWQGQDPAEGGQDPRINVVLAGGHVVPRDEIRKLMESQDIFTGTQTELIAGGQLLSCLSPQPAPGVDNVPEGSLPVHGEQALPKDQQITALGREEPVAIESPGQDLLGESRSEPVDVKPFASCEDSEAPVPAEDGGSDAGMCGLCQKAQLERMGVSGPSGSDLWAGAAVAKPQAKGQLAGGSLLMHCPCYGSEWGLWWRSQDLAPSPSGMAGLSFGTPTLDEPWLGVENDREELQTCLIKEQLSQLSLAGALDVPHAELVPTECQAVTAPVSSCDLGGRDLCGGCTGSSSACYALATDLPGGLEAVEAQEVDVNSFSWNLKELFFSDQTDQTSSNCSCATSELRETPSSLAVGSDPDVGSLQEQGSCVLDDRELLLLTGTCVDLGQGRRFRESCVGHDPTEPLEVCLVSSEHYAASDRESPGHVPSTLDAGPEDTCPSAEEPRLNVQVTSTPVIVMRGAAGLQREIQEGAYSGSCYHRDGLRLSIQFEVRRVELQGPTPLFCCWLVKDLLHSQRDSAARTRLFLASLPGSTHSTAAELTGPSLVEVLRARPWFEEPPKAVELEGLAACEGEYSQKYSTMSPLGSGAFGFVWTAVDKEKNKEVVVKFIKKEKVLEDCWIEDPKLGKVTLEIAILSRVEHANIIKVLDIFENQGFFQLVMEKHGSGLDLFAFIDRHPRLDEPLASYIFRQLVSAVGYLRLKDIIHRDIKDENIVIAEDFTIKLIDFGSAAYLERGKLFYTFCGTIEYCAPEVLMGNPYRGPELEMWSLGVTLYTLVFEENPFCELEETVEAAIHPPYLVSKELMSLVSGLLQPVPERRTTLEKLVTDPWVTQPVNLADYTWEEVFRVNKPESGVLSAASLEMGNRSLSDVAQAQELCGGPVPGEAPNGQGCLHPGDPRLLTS
Chain of hPASK (kinase domain) (Q96RG2 999-1251): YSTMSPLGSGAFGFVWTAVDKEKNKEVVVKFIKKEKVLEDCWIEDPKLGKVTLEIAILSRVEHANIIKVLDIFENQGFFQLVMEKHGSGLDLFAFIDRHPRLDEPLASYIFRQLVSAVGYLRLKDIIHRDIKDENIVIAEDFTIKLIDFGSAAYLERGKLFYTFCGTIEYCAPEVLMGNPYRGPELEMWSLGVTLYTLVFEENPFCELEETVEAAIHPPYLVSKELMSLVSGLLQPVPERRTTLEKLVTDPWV

Q: For `COc1ccc(-c2nn3c(=O)cc(C(C)C)[nH]c3c2-c2ccccc2)cc1` [Example 30, 5-Isopropyl-2-(4-methoxy-phenyl)-3-phenyl-4H-pyrazolo[1,5-a]pyrimidin-7-one], which IC50 [1] is on record?
A: The IC50 was at least 10 µM.

Q: What about the IC50 [2] of the same compound?
A: The IC50 was at least 10 µM.

Q: How did the IC50 [1] turn out when `COc1ccc(Cc2nn3c(=O)cc(C)[nH]c3c2-c2ccccc2)cc1` [Example 31, 2-(4-Methoxy-benzyl)-5-methyl-3-phenyl-4H-pyrazolo[1,5-a]pyrimidin-7-one] was run?
A: The IC50 was at least 10 µM.

Q: What about the IC50 [2] of the same compound?
A: The IC50 was at least 10 µM.

Q: Which results are given for `CCc1c(C)[nH]c2c(-c3ccccc3)c(Cc3ccc(OC)cc3)nn2c1=O` [Example 32, 6-Ethyl-2-(4-methoxy-benzyl)-5-methyl-3-phenyl-4H-pyrazolo[1,5-a]pyrimidin-7-one]?
A: IC50 [1]: ≥ 10 µM; IC50 [2]: ≥ 10 µM

Q: `CCc1c(C)[nH]c2c(-c3ccc(Cl)cc3)c(C)nn2c1=O` [Example 33, 3-(4-Chloro-phenyl)-6-ethyl-2,5-dimethyl-4H-pyrazolo[1,5-a]pyrimidin-7-one] was tested. Which IC50 [1] did it give?
A: The IC50 was at least 10 µM.

Q: What about the IC50 [2] of the same compound?
A: Its IC50 is at least 10 µM.

Q: Which IC50 [1] does the source give for `O=c1cc(Cc2ccccc2)[nH]c2c(-c3ccccc3)c(-c3ccccc3)nn12` [Example 34, 5-Benzyl-2,3-diphenyl-4H-pyrazolo[1,5-a]pyrimidin-7-one] here?
A: The IC50 was at least 10 µM.

Q: What about the IC50 [2] of the same compound?
A: The IC50 was at least 10 µM.

Q: What does the source list for `O=c1c2c([nH]c3c(-c4ccccc4)c(-c4ccccc4)nn13)CCC2` [Example 35, 2,3-Diphenyl-6,7-dihydro-4H-cyclopenta[d]pyrazolo[1,5-a]pyrimidin-8(5H)-one]?
A: IC50 [1]: ≥ 10 µM; IC50 [2]: ≤ 10 µM

Q: Which results are given for `CCOC(=O)Cc1cc(=O)n2nc(-c3ccccc3)c(-c3ccccc3)c2[nH]1` [Example 36, (7-oxo-2,3-diphenyl-4,7-dihydro-pyrazolo[1,5-a]pyrimidin-5-yl)-acetic acid ethyl ester]?
A: IC50 [1]: ≥ 10 µM; IC50 [2]: ≥ 10 µM

Q: With `Cc1ccc(-c2cc(=O)n3nc(C)c(-c4ccccc4)c3[nH]2)cc1` [Example 37, 2-Methyl-3-phenyl-5-p-tolyl-4H-pyrazolo[1,5-a]pyrimidin-7-one] as the compound, how does the IC50 [1] read?
A: The IC50 was at least 10 µM.

Q: And the IC50 [2]?
A: Its IC50 is at least 10 µM.

Q: Which IC50 [1] does the source give for `COc1ccc(-c2cc(=O)n3nc(C)c(-c4ccc(F)cc4)c3[nH]2)cc1` [Example 38, 3-(4-Fluoro-phenyl)-5-(4-methoxy-phenyl)-2-methyl-4H-pyrazolo[1,5-a]pyrimidin-7-one] here?
A: The IC50 was at most 10 µM.

Q: And the IC50 [2]?
A: The IC50 was at most 10 µM.

Q: Which IC50 [1] does the source give for `Cc1cc(=O)n2nc(-c3cccc(Br)c3)cc2[nH]1` [Example 39, 2-(3-Bromo-phenyl)-5-methyl-4H-pyrazolo[1,5-a]pyrimidin-7-one] here?
A: The IC50 was at most 10 µM.

Q: And the IC50 [2]?
A: Its IC50 is at least 10 µM.
